Laboratory results: patent US20120128630A1, “1-(6 MEMBERS AZO-HETEROCYCLIC)-PYRROLIN-2-ONE COMPOUNDS AS INHIBITORS OF HEPATITIS C NS5B POLYMERASE, THE PHARAMACEUTICAL COMPOSITION THEREOF AND THEIR THERAPEUTIC USE” (priority 2009, published 2012)

Tests used:
HCV NS5B genotype 1b = biological target: T1, HCV NS5B genotype 1b (Hepatitis C virus genotype 1b, UniProt Q9WMX2); assay: 3D-SCREEN assay (NS5B 3D-Screen platform, luciferase reporter gene); assay type: cell-based; conditions: EC50_3DS_NS5B, Table 1, 3D-SCREEN assay results; Huh-7 cells, 24 hours with compound, firefly luciferase reporter
T1 construct: The protein was expressed with a 21 amino acid C-terminal deletion to remove transmembrane domain; expressed in transfected cells; host or cells: Huh-7
How it was run: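 Huh-7 cells transiently co-transfected with NS5BΔ21/Gal4-DBD, 3D-Sensor peptide I4/VP16 and firefly luciferase reporter. Compounds added 2 h after seeding, 1% DMSO final, 24 h incubation. Luciferase luminescence read; % inhibition relative to no-compound signal.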

HCV replicon Luc Neo ET = assay: Luc Neo ET Replicon assay; assay type: cell-based, Hepatitis C virus; conditions: Hepatitis C virus, 72 h, Table 3, titled RdRp enzyme assay results, EC50_Replicon LucneoET; 72 hours with compound, luciferase
How it was run: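 Huh-7-derived Luc Neo ET bicistronic HCV replicon cells (adaptive mutations E1202G, T1280I, K1846T) treated 24 h after seeding with compounds for 72 h, 1% DMSO final, 37 °C. Firefly luciferase luminescence read after lysis; % inhibition from background-corrected RLU relative to untreated signal.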

[1] = biological target: T2, HCV NS5B with a deletion of the 21 C-terminal amino acids (Hepatitis C virus genotype 1b, UniProt Q9WMX2); assay: HCV NS5B RdRp enzyme assay; assay type: biochemical
T2 construct: purified HCV NS5B with a deletion of the 21 C-terminal amino acids
Description: The assay was performed in a total volume of 20 μl containing 20 mM Tris pH 7.5, 1 mM DTT, 17 U RNasin, 50 mM NaCl, 10% DMSO, 5 mM MgCl2, 0.5 mM each of the 3 NTPs (ATP, CTP, GTP), 86 nM RNA template (341 nt from the 3′ end of HCV minus strand RNA), 50 nM of purified HCV NS5B with a deletion of the 21 C-terminal amino acids and 2 μCi [^3H]UTP (46 Ci.mmol^−1). The reaction mixture was incubated for 2 h at 25-30° C. and the radiolabeled products were precipitated by the addition of 10% TCA. The radioactivity incorporated was quantified by counting in a Wallac scintillation counter. Increasing concentrations of tested compounds were added to the complete RdRp reaction mixture. After a two hour incubation period at 25-30° C., the amount of labeled product was determined as above. Two types of control reactions were done: a negative control corresponding to the complete mixture without enzyme and a positive control with enzyme but without compounds. In each experiment, test and control samples are in duplicate.
The level of activity with each compound concentration was expressed with the formulae: […]
The IC50 value was calculated as the compound concentration reducing polymerase activity by 50%.

## Cc1ccc(N2C(=O)C(O)=C(C(=O)c3ccc(C(C)C)cc3)C2c2ccc(C(F)(F)F)cc2)nn1 (stereo not shown) [Example 63, 3-hydroxy-4-(4-isopropyl-benzoyl)-1-(6-methyl-pyridazin-3-yl)-5-(4-trifluoromethyl-phenyl)-1,5-dihydro-pyrrol-2-one]
HCV NS5B genotype 1b
  EC50: 60 nM
HCV replicon Luc Neo ET
  EC50: 100 nM
[1]
  inhibition at 10 µM: 50%
other
  melting point: 268 to 270 °C
